# Calls of active or inactive are those of the source. No cut-off for these calls is given here.
# Tests used:
# [1] = system: Pseudomonas aeruginosa; experiment: Antivirulence activity in Pseudomonas aeruginosa assessed as inhibition of rhamnolipids production at sub-MIC by spectrophotometric method relative to control; type: functional
# [2] = system: Pseudomonas aeruginosa; experiment: Inhibition of biofilm formation in Pseudomonas aeruginosa assessed as absorbance by measuring OD at 570 nm at sub-MIC by crystal violet staining based analysis (reference value: 0.635 +/- 0.014); type: functional
# [3] = system: Bacillus subtilis; experiment: Antimicrobial activity against Bacillus subtilis ATCC 6633 assessed as growth inhibition zone by agar diffusion method; type: functional
# [4] = system: Pseudomonas aeruginosa; experiment: Antibacterial activity against Pseudomonas aeruginosa assessed as effect on bacterial growth at 9.375 microg/ml incubated for 24 hrs by growth curve analysis; type: functional, organism-based; conditions: dose 9.375 µg/ml
# [5] = system: Escherichia coli; experiment: Antimicrobial activity against Escherichia coli ATCC 25922 assessed as growth inhibition zone by agar diffusion method; type: functional
# [6] = system: Pseudomonas aeruginosa; experiment: Antivirulence activity in Pseudomonas aeruginosa assessed as inhibition of pyocyanin production at sub-MIC by chloroform-HCl extraction method relative to control; type: functional
# [7] = system: Pseudomonas aeruginosa; experiment: Antibacterial activity against Pseudomonas aeruginosa by CLSI protocol based broth microdilution method; type: functional; conditions: for MIC: Pseudomonas aeruginosa
# [8] = system: Candida albicans; experiment: Antimicrobial activity against Candida albicans ATCC 60193 assessed as growth inhibition zone by agar diffusion method; type: functional
# [9] = system: Pseudomonas aeruginosa; experiment: Inhibition of biofilm formation in Pseudomonas aeruginosa at sub-MIC by crystal violet staining based analysis relative to control; type: functional
# [10] = system: Pseudomonas aeruginosa; experiment: Antivirulence activity in Pseudomonas aeruginosa assessed as inhibition of pyocyanin production by measuring OD at […] at sub-MIC by chloroform-HCl extraction method relative to control; type: functional
# [11] = system: Staphylococcus aureus; experiment: Antimicrobial activity against Staphylococcus aureus ATCC 43300 assessed as growth inhibition zone by agar diffusion method; type: functional
# [12] = system: Pseudomonas aeruginosa; experiment: Antimicrobial activity against Pseudomonas aeruginosa ATCC 27853 assessed as growth inhibition zone by agar diffusion method; type: functional
# [13] = system: Klebsiella pneumoniae; experiment: Antimicrobial activity against Klebsiella pneumoniae ATCC 700603 assessed as growth inhibition zone by agar diffusion method; type: functional
# [14] = system: Pseudomonas aeruginosa; experiment: Antibacterial activity against Pseudomonas aeruginosa assessed as effect on bacterial growth at 18.75 microg/ml incubated for 24 hrs by growth curve analysis; type: functional, organism-based; conditions: dose 18.75 µg/ml
# [15] = target: T1, Transcriptional activator protein LasR (Pseudomonas aeruginosa (strain ATCC 15692 / PAO1 / 1C / PRS 101 / LMG12228), UniProt P25084); experiment: Inhibition of Pseudomonas aeruginosa LasR in Escherichia coli DH5 transfected with lacZ reporter and JN105 production plasmid incubated for 4 hrs by beta-galactosidase reporter based miller test
# T1 sequence (P25084 whole entry): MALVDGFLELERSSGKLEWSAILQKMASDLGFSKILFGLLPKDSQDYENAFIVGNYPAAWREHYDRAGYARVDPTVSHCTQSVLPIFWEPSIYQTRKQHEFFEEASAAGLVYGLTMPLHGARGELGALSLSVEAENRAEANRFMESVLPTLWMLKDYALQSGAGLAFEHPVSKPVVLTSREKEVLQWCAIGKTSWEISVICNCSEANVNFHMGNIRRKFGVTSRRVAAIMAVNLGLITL
compound,measurement,setting,value
Clc1ccc(-c2ccnc3c(-c4nc5ccccc5s4)cnn23)cc1,inhibition (INH),[1],42.5%
same,OD,[2],0.287
same,inhibition zone (IZ),[3],21 mm
same,Activity,[4],inactive
same,inhibition zone (IZ),[5],20 mm
same,inhibition (INH),[6],53.9%
same,SubMIC,[7],9.375 µg/mL
same,MIC,[7],18.8 µg/mL
same,inhibition zone (IZ),[8],26 mm
same,inhibition (INH),[9],54.8%
same,OD,[10],0.205
same,inhibition zone (IZ),[11],25 mm
same,inhibition zone (IZ),[12],23 mm
same,inhibition zone (IZ),[13],25 mm
COc1ccc(-c2ccnc3c(-c4nc5ccccc5s4)cnn23)cc1,inhibition (INH),[1],28.6%
same,OD,[2],0.342
same,inhibition zone (IZ),[3],19 mm
same,Activity,[4],inactive
same,inhibition zone (IZ),[5],22 mm
same,inhibition (INH),[6],39.8%
same,SubMIC,[7],9.375 µg/mL
same,MIC,[7],18.8 µg/mL
same,inhibition zone (IZ),[8],23 mm
same,inhibition (INH),[9],46.1%
same,OD,[10],0.268
same,inhibition zone (IZ),[11],17 mm
same,inhibition zone (IZ),[12],22 mm
same,inhibition zone (IZ),[13],19 mm
OC(Cn1cncn1)(Cn1cncn1)c1ccc(F)cc1F [FLUCONAZOLE],inhibition zone (IZ),[8],30 mm
N#C/C(=C\c1ccc(N2CCOCC2)cc1)c1nc2ccccc2s1,inhibition (INH),[1],24.3%
same,OD,[2],0.383
same,inhibition zone (IZ),[3],19 mm
same,inhibition zone (IZ),[5],24 mm
same,inhibition (INH),[6],35.1%
same,SubMIC,[7],18.75 µg/mL
same,MIC,[7],37.5 µg/mL
same,Activity,[14],inactive
same,inhibition zone (IZ),[8],24 mm
same,inhibition (INH),[9],39.7%
same,OD,[10],0.289
same,inhibition zone (IZ),[11],23 mm
same,inhibition zone (IZ),[12],21 mm
same,inhibition zone (IZ),[13],20 mm
C[C@@H](O)[C@H]1C(=O)N2C(C(=O)O)=C(SCCNC=N)C[C@H]12 [IMIPENEM ANHYDROUS],inhibition zone (IZ),[3],20 mm
same,inhibition zone (IZ),[5],22 mm
same,MIC,[7],93.9 µM
same,inhibition zone (IZ),[11],24 mm
same,inhibition zone (IZ),[12],12 mm
same,inhibition zone (IZ),[13],18 mm
N#C/C(=C\c1ccc(N2CCCCC2)cc1)c1nc2ccccc2s1,inhibition (INH),[1],34.9%
same,OD,[2],0.303
same,inhibition zone (IZ),[3],21 mm
same,Activity,[4],inactive
same,inhibition zone (IZ),[5],25 mm
same,inhibition (INH),[6],43.6%
same,SubMIC,[7],9.375 µg/mL
same,MIC,[7],18.8 µg/mL
same,inhibition zone (IZ),[8],25 mm
same,inhibition (INH),[9],52.3%
same,OD,[10],0.251
same,inhibition zone (IZ),[11],24 mm
same,inhibition zone (IZ),[12],23 mm
same,inhibition zone (IZ),[13],24 mm
Cc1ccc(-c2ccnc3c(-c4nc5ccccc5s4)cnn23)cc1,inhibition (INH),[1],45.3%
same,OD,[2],0.26
same,inhibition zone (IZ),[3],20 mm
same,Activity,[4],inactive
same,inhibition zone (IZ),[5],22 mm
same,inhibition (INH),[6],59.6%
same,SubMIC,[7],9.375 µg/mL
same,MIC,[7],18.8 µg/mL
same,inhibition zone (IZ),[8],28 mm
same,inhibition (INH),[9],59.1%
same,OD,[10],0.18
same,inhibition zone (IZ),[11],26 mm
same,inhibition zone (IZ),[12],24 mm
same,inhibition zone (IZ),[13],26 mm
N#C/C(=C\c1ccc(N2CCCC2)cc1)c1nc2ccccc2s1,inhibition (INH),[1],51%
same,OD,[2],0.229
same,inhibition zone (IZ),[3],22 mm
same,Activity,[4],inactive
same,inhibition zone (IZ),[5],24 mm
same,inhibition (INH),[6],64.9%
same,SubMIC,[7],9.375 µg/mL
same,MIC,[7],18.8 µg/mL
same,inhibition zone (IZ),[8],28 mm
same,inhibition (INH),[9],63.9%
same,OD,[10],0.156
same,IC50,[15],1.55 µM
same,inhibition zone (IZ),[11],27 mm
same,inhibition zone (IZ),[12],25 mm
same,inhibition zone (IZ),[13],26 mm
Fc1ccc(-c2ccnc3c(-c4nc5ccccc5s4)cnn23)cc1,inhibition (INH),[1],54.3%
same,OD,[2],0.194
same,inhibition zone (IZ),[3],25 mm
same,Activity,[4],inactive
same,inhibition zone (IZ),[5],21 mm
same,inhibition (INH),[6],69.4%
same,SubMIC,[7],9.375 µg/mL
same,MIC,[7],18.8 µg/mL
same,inhibition zone (IZ),[8],30 mm
same,inhibition (INH),[9],69.4%
same,OD,[10],0.136
same,IC50,[15],1.1 µM
same,inhibition zone (IZ),[11],24 mm
same,inhibition zone (IZ),[12],25 mm
same,inhibition zone (IZ),[13],26 mm
Cc1nc2c(-c3nc4ccccc4s3)cnn2c(C)c1Cl,inhibition (INH),[1],21.2%
same,OD,[2],0.406
same,inhibition zone (IZ),[3],21 mm
same,inhibition zone (IZ),[5],21 mm
same,inhibition (INH),[6],31.5%
same,SubMIC,[7],18.75 µg/mL
same,MIC,[7],37.5 µg/mL
same,Activity,[14],inactive
same,inhibition zone (IZ),[8],22 mm
same,inhibition (INH),[9],36.1%
same,OD,[10],0.305
same,inhibition zone (IZ),[11],19 mm
same,inhibition zone (IZ),[12],21 mm
same,inhibition zone (IZ),[13],22 mm
Brc1ccc(-c2ccnc3c(-c4nc5ccccc5s4)cnn23)cc1,inhibition (INH),[1],9.5%
same,OD,[2],0.508
same,inhibition zone (IZ),[3],16 mm
same,inhibition zone (IZ),[5],18 mm
same,inhibition (INH),[6],15.5%
same,SubMIC,[7],18.75 µg/mL
same,MIC,[7],37.5 µg/mL
same,Activity,[14],inactive
same,inhibition zone (IZ),[8],20 mm
same,inhibition (INH),[9],20%
same,OD,[10],0.376
same,inhibition zone (IZ),[11],19 mm
same,inhibition zone (IZ),[12],19 mm
same,inhibition zone (IZ),[13],17 mm
CC1CCN(c2ccc(/C=C(\C#N)c3nc4ccccc4s3)cc2)CC1,inhibition (INH),[1],30.9%
same,OD,[2],0.317
same,inhibition zone (IZ),[3],20 mm
same,Activity,[4],inactive
same,inhibition zone (IZ),[5],22 mm
same,inhibition (INH),[6],40.7%
same,SubMIC,[7],9.375 µg/mL
same,MIC,[7],18.8 µg/mL
same,inhibition zone (IZ),[8],24 mm
same,inhibition (INH),[9],50.1%
same,OD,[10],0.264
same,inhibition zone (IZ),[11],22 mm
same,inhibition zone (IZ),[12],22 mm
same,inhibition zone (IZ),[13],27 mm
c1ccc(-c2ccnc3c(-c4nc5ccccc5s4)cnn23)cc1,inhibition (INH),[1],13.3%
same,OD,[2],0.472
same,inhibition zone (IZ),[3],17 mm
same,inhibition zone (IZ),[5],19 mm
same,inhibition (INH),[6],22.2%
same,SubMIC,[7],18.75 µg/mL
same,MIC,[7],37.5 µg/mL
same,Activity,[14],inactive
same,inhibition zone (IZ),[8],21 mm
same,inhibition (INH),[9],25.7%
same,OD,[10],0.346
same,inhibition zone (IZ),[11],20 mm
same,inhibition zone (IZ),[12],20 mm
same,inhibition zone (IZ),[13],21 mm

# Reference: ChEMBL document CHEMBL6127070, “Design, synthesis, and molecular dynamic simulations of some novel benzo[d]thiazoles with anti-virulence activity against Pseudomonas aeruginosa” (Eur J Med Chem, 2024)
